# Reference: patent US20250221967A1, “COMPOSITIONS AND METHODS FOR THE TREATMENT OF CANCER AND OTHER PROLIFERATIVE DISEASES” (THE WISTAR INSTITUTE OF ANATOMY AND BIOLOGY, priority 2022, published 2025)
# “Also recorded” adds a separate entry of the source.
# Tests used:
# [1] = molecular target: T1, Rb protein (Homo sapiens, UniProt P06400); test: Iodoacetamide capping of Cys residues of compound-treated Rb protein, MALDI-MS; conditions: for # of CH2CONH2: RB + compound + Iodoacetamide, RB + DMSO control gives 8; for Cys residues masked from reacting with the iodoacetamide: Rb protein treated with compound, then iodoacetamide
# T1 sequence (P06400 380-785 limits assumed): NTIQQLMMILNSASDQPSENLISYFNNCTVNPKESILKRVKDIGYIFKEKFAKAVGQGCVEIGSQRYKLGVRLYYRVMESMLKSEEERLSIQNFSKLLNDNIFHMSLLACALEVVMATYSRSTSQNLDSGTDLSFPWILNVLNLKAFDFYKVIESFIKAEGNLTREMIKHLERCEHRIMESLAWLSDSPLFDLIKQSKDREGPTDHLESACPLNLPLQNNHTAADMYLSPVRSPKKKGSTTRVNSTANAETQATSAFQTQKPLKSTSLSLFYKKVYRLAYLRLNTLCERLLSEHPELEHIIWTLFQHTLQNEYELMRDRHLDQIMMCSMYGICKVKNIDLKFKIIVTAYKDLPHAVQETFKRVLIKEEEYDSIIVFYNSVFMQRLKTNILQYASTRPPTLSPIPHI
# Method: Further studies were conducted to evaluate the binding of the compounds to the Rb protein. Using MS, the […] that had been treated with excess amounts of the compounds were then capped with iodoacetamide. […] Furthermore, there was a significant reduction in MS/MS sequencing events. […] One explanation is that the compound activates Cys706 for nucleophilic attack from Cys712.
# In order to confirm that, the Rb protein was treated with iodoacetamide to cap the Cys residues. The predicted chart is shown below.
# [2] = tested on: PDA T high cell line; test: Orthotopic PDA T high tumor model in NSG immunodeficient mice; format: in vivo
# Method: (§1) (FIGS. 2A-B) B6 wild-type mice were orthotopically injected with PDA T high cell line into the pancreas. T high PDA cell line was previously generated by Dr. Stanger's lab (Upenn), this tumor cell line can induce some T cell infiltration opposite to T low PDA cell line (shown in FIGS. 4A-C). Mice were treated with 7 daily AP-3-84 or vehicle starting from day 4. On day 22 pancreatic tumors were collected and compared across two groups. […] (FIG. 2C) B6 wild-type mice were injected subcutaneously with PDA T high tumor cells and treated with AP-3-84 or vehicle as in FIGS. 2A-B. Tumor growth was measured until day 31. […] (FIG. 2D) Same experiment as in FIGS. 2A-B was conducted in NSG immunodeficient mice.
# [3] = tested on: PDA T high cell line; test: Orthotopic PDA T high pancreatic tumor model in B6 wild-type mice; format: in vivo; conditions: 7 daily treatments from day 4, tumors collected day 22, listed as AP-3-84
# Method: as §1
# Statistical analysis of the data was conducted using unpaired Student t-test criteria with additional false discovery rate adjustment for multiple comparisons for gene expression analysis.
# [4] = tested on: Tumor PDAC cells; test: Tumor cell viability by Annexin V/DAPI staining; format: cell-based; conditions: different concentrations, 16 hours, listed as AP-3-84
# Method: (§2) FIGS. 1A-B. Novel Rb1 modulator AP-3-84 induces cell death specifically in macrophages. (FIG. 1A) Tumor PDAC cells and thioglycolate-induced macrophages were cultured with different concentrations of AP-3-84 Rb1 modulator for 16 hours with the following assessment of viability by Annexin V/DAPI staining. […] (FIG. 1B) Thioglycollate-induced macrophages were cultured with 10 uM AP-3-84 for 4 hours and gene expression changes were studied by RNA-Seq.
# [5] = tested on: nonhemopoitic cancer cells; test: Cell proliferation by CFSE dye dilution; format: cell-based; conditions: nonhemopoietic cancer cells
# Excerpt: FIG. 22A-22C. […] A. Graphs indicates the total percentage of cell death (annexin V+ and AnnexinV+Live-Dead+ cells) in PMA treated THP-1 cells. […] C. Histogram indicates cell proliferation, measured by CSFE dye dilution in presence of AP-3-84 and other inhibitors. Bar diagram indicates average MFI of CFSE dye in presence of different inhibitors.
# [6] = tested on: PMA differentiated THP1 cells; test: Cell death in PMA differentiated THP-1 cells; format: cell-based; conditions: PMA treated THP-1 cells; listed as AP-3-84
# Method: (§3) Additionally, the inventors obtained test results showing the compounds to be effective in models of AML. AML cell lines (THP-1, AML-193, Kasumi-1) were cultured at different cell concentration (75000/ml, 125,000/ml and 200,000/ml) and exposed to 5, 10, 15, 20 μM concentration of AP-3-84. Cell differentiation was induced by 100 ng/ml PMA over 24 hours. Nonhemopoietic cancer cells (ID8, PDAC) were analyzed after exposure to AP-3-84. Cell death outcomes were measured by Annexin-V using flowcytometry or viability measures by Alamar blue assay. Protein levels were measured by Western blots at intervals between 30 min and 6 hours after exposure to AP-3-84 for total Rb1, phosphorylated Rb1, ATF3, BIM, NOXA, BaK, Bax, cleaved PARP, cleaved Caspase-3. Cytoplasmic and mitochondrial lysates were examined. Confocal immunocytochemistry on Rb1 expression in nucleus versus cytoplasm was performed.
# [7] = tested on: Nonhemopoietic cancer cells (ID8, PDAC); test: Cell death in nonhemopoietic cancer cells; format: cell-based; conditions: listed as AP-3-84
# Method: as §3
# [8] = tested on: tumor-associated macrophages; test: Flow cytometry of immune cells in orthotopic PDA T high model; format: in vivo, mice
# Method: FIGS. 3A-B. AP-3-84 depletes tumor macrophages and re-shapes immune cell landscape. (FIGS. 3A-B) B6 wild-type mice were orthotopically injected with PDA T high cell line into the pancreas and treated with AP-3-84 or vehicle as in FIGS. 2A-D. Tumor cells on day 12 (FIG. 3A) or peritoneum cells on day 21 (FIG. 3B) were analyzed by flow cytometry. […] Significant effects on activation and differentiation of immune cells in tumor and periphery were also found (not shown).
# [9] = molecular target: T2, HDAC1 binding Rb-NT (380-785) (Homo sapiens, UniProt P06400); test: Inhibition of HDAC1 binding to Rb-NT (380-785); conditions: for Inhibition of HDAC1 binding Rb-NT (380-785) Top: top of inhibition curve
# T2 construct: Rb-NT (380-785)
# T2 sequence (P06400 380-785): T1 sequence (P06400 380-785 limits assumed)
# Method: Additionally, the binding of different proteins was evaluated. The binding of E7, E2F1, MDM2, and HDAC1 were evaluated to Rb fragments. The compounds tested herein where shown inhibit HDAC1 binding to the Rb fragments in the LxCxE binding pocket.
# [10] = tested on: PDA T high tumor cells; test: Subcutaneous PDA T high tumor model in B6 wild-type mice; format: in vivo; conditions: measured until day 31
# Method: as §1
# [11] = tested on: thioglycolate-induced macrophages; test: Macrophage viability by Annexin V/DAPI staining; format: cell-based; conditions: different concentrations, 16 hours, listed as AP-3-84
# Method: as §2
# [12] = tested on: PDA T low cell line; test: PDA T low tumor model (orthotopic or subcutaneous) in B6 wild-type mice; format: in vivo
# Method: FIGS. 4A-C. AP-3-84 renders more resistant PDA tumors with low T cell infiltration into immunotherapy responsive tumors. […] Statistical analysis of the data was conducted using unpaired Student t-test criteria with additional false discovery rate adjustment for multiple comparisons for gene expression analysis.
# [13] = tested on: THP-1 cell line; test: Western blots of ER stress and apoptosis proteins; format: cell-based; conditions: Western blot, listed as AP-3-84
# Method: as §3
# [14] = molecular target: T3, Rb-NT (380-785) (Homo sapiens, UniProt P06400); test: Inhibition of AP-8-239 binding to Rb-NT (380-785); conditions: for Inhibition of AP-8-239 binding Rb-NT (380-785) Top: top of inhibition curve
# T3 construct: Rb-NT (380-785)
# T3 sequence (P06400 380-785): T1 sequence (P06400 380-785 limits assumed)
# [15] = tested on: Thioglycollate-induced macrophages; test: Gene expression changes by RNA-Seq; format: cell-based; conditions: 10 uM, 4 hours, listed as AP-3-84
# Method: as §2
# [16] = tested on: AML cell lines (THP-1, AML-193, Kasumi-1); test: Cell death in AML cell lines (Annexin-V flow cytometry, Alamar blue); format: cell-based
# Method: as §3
compound,measurement,setting,value
COc1cccc(-n2sc(=O)n(C)c2=O)c1 [AP-03-084],# of CH2CONH2,[1],2
same,Cys residues masked from reacting with the iodoacetamide,[1],6
same,tumor growth,[2],No effect of AP-3-84 treatment was observed
same,pancreatic tumor growth,[3],significant reduction of tumor growth; also recorded: significantly reduced the tumor growth in mice
same,PDA tumor cell viability / death of other cell types,[4],not of the other cell types (neither tumor nor T cells); also recorded: didn't affect PDA tumor cell viability
same,cell division rate,[5],No effect in cell division rate
same,cell death,[6],no cell death was induced; also recorded: minor effect on PMA treated THP-1 cells
same,cell death,[7],no cell death was induced; also recorded: does not induce cell death in ID8 cells
same,immune cell composition in the peritoneum,"[8]; peritoneum cells on day 21, flow cytometry",re-shapes the immune cell composition in the peritoneum
same,tumor-associated macrophages in tumors,"[8]; tumor cells on day 12, flow cytometry, listed as AP-3-84",depleting macrophages and inducing T cell infiltration; also recorded: effectively depletes tumor-associated macrophages in tumors
same,IC50,[9],89 nM
same,Inhibition of HDAC1 binding Rb-NT (380-785) Top,[9],75%
same,tumor growth,[10],Significant reduction of tumor growth
same,macrophage cell death,[11],can induce cell death of TAMs and thioglycolate-induced macrophages; also recorded: induced macrophage cell death in dose-dependent manner
same,"tumor growth, AP-3-84 treatment alone",[12]; orthotopic and subcutaneous models,didn't dramatically affect the tumor growth
same,"tumor growth, combined with Immunotherapy","[12]; with anti-PD1/anti-CTLA4/anti-CD40, listed as AP-3-84",decrease tumor burden in T-low-PDA model; also recorded: effectively reduced the tumor growth compared to monotherapies
same,"apoptosis proteins (NOXA, BIM, cleaved-PARP, cleaved Caspase-3)",[13]; 10 uM in FIG. 23A,"increased mitochondrial protein levels of NOXA, BIM, cleaved-PARP, and cleaved Caspase-3; also recorded: induction of Cleaved-PARP, Noxa and Cleaved-caspase 3"
same,"Bax, Bak, Bcl-2, Bcl-xl levels",[13],Bax and Bak levels were unchanged; also recorded: Bax Bcl-2 and Bcl-xl does not get altered
same,"ER-stress signals (ATF4, ATF3, peIF2a)",[13],"induced higher levels of ER-stress signals (higher ATF4, ATF3); also recorded: Induction of ATF4, ATF3 and peIF2a"
same,IC50,[14],445 nM
same,Inhibition of AP-8-239 binding Rb-NT (380-785) Top,[14],90.1%
same,gene expression changes,[15],induction of oxidative and ER stress programs with a clear activation of p53-dependent genes and caspases; also recorded: induced strong unfolded protein and oxidative stress response with the induction of apoptosis pathway and p53 signaling
same,cells undergoing cell death,"[16]; 5 minute exposure, 24 hours later",70-80%
same,concentration at which induction of cell death was observed,"[16]; AML cells, tested at 5, 10, 15, 20 μM",≥ 10 µM
same,cell death in AML cell lines,"[16]; THP-1, AML-193, Kasumi-1, annexin V+ and AnnexinV+Live-Dead+ cells",induced cell death in different AML cell lines
Cn1c(=O)sn(-c2cccc(OCCCNC(=O)c3ccccc3)c2)c1=O [AP-08-238],IC50,[9],83 nM
same,Inhibition of HDAC1 binding Rb-NT (380-785) Top,[9],71%
same,IC50,[14],54 nM
same,Inhibition of AP-8-239 binding Rb-NT (380-785) Top,[14],90.6%
Cn1c(=O)sn(-c2cccc(OCCCN)c2)c1=O [AP-08-231],IC50,[9],77 nM
same,Inhibition of HDAC1 binding Rb-NT (380-785) Top,[9],72%
same,IC50,[14],362 nM
same,Inhibition of AP-8-239 binding Rb-NT (380-785) Top,[14],83.3%
Cn1c(=O)sn(-c2cccc(OCCCNC(=S)Nc3ccc4c(c3)C(=O)OC43c4ccc(O)cc4Oc4cc(O)ccc43)c2)c1=O [AP-08-239],# of CH2CONH2,[1],6
same,Cys residues masked from reacting with the iodoacetamide,[1],2
Cn1c(=O)sn(-c2cccc(OCCCNC(=O)CC[C@@H](NC(=O)c3ccc(NCCc4cc5c(=O)[nH]c(N)nc5[nH]4)cc3)C(=O)O)c2)c1=O [AP-08-237],IC50,[9],171 nM
same,Inhibition of HDAC1 binding Rb-NT (380-785) Top,[9],72%
same,IC50,[14],22 nM
same,Inhibition of AP-8-239 binding Rb-NT (380-785) Top,[14],85.9%
"O=c1sn(-c2cccc3ccccc23)c(=O)n1Cc1ccccc1 [Tideglusib, reference compound]",IC50,[9],40 nM
same,Inhibition of HDAC1 binding Rb-NT (380-785) Top,[9],77%
same,IC50,[14],126 nM
same,Inhibition of AP-8-239 binding Rb-NT (380-785) Top,[14],86.9%
C=CC(=O)N(C)C(=O)Nc1cccc(OC)c1 [SA-01-048],IC50,[9],12700 nM
same,Inhibition of HDAC1 binding Rb-NT (380-785) Top,[9],69%
same,IC50,[14],2920 nM
same,Inhibition of AP-8-239 binding Rb-NT (380-785) Top,[14],83.8%
